Experiment [1] has as its target T1, HIV-1 RT enzyme (Human immunodeficiency virus type 1 group M subtype B, UniProt P04585).
T1 construct: Full-length wild-type and 2 mutant RT proteins were expressed in Escherichia coli BL21(DE3) cells and purified; made in house; host or cells: Escherichia coli BL21(DE3)
The experiment can be described thus: RT Polymerase Assay. Conditions: for IC50: HIV-1 RT 50 pM, 90 min at 37° C., triphosphates tested, read-out: dNTP IC50. The format is biochemical. The text has this:
The compounds of Formula I, and pharmaceutically acceptable salts thereof, are HIV reverse transcriptase inhibitors. The compounds are useful for inhibiting HIV reverse transcriptase and for inhibiting HIV replication in vitro and in vivo. More particularly, the compounds of Formula I inhibit the polymerase function of HIV-1 reverse transcriptase. The testing of compounds of the Examples of the invention in the assay set forth in the RT Polymerase Assay below, illustrates the ability of compounds of the invention to inhibit the RNA-dependent DNA polymerase activity of HIV-1 reverse transcriptase. The compounds of Formula I may also be useful agents against HIV-2.
Full-length wild-type and 2 mutant RT proteins were expressed in Escherichia coli BL21(DE3) cells and purified. Briefly, the heterodimeric nucleic acid substrate used in the HIV-1 RT polymerase reactions was generated by annealing biotinylated DNA primer to a 500 nucleotide RNA template. The HIV-1 RT enzyme (final concentration of 50 pM) was combined with an inhibitor compound or DMSO (10% DMSO in the final reaction mixture) in assay buffer (62.5 mM Tris-HCl, pH 7.8, 1.25 mM dithiothreitol, 7.5 mM MgCl2, 100 mM KCl, 0.03% CHAPS, 0.125 mM EGTA). This mixture was pre-incubated for 30 minutes at room temperature in microtiter plates. The polymerization reaction was initiated by the addition of template/primer substrate (final concentration: 16.6 nM) and dNTPs (final concentration: 2 μM dCTP, dGTP, dATP, and 66.6 nM Ru-dUTP). After 90 min of incubation at 37° C., reactions were quenched by the addition of EDTA (25 mM). The resulting mixture was incubated for an additional 5 minutes at room temperature followed by transferring the solution (50 μL) to blocked avidin plate from Meso Scale Discovery (MSD). The mixtures were incubated at room temperature for 60 min prior to the quantification of the reaction product via an ECL 6000 imager instrument.

Experiment [2] deals with HIV-1 (H9IIIB virus). The experiment can be described thus: Viking assay: antiviral potency in a multiple round HIV-1 infection assay (MT4-GFP cells). In kind it is cell-based. Particulars: Human immunodeficiency virus 1, MT4-GFP cells, 10% normal human serum; inhibition of reproductive ratio R0; read-out: Viking, IC50 (10% NHS). The procedure:
Assessing Antiviral Potency in a Multiple Round HIV-1 Infection Assay.
HIV-1 replication was monitored using MT4-gag-GFP clone D3 (hereafter designate MT4-GFP), which are MT-4 cells modified to harbor a GFP reporter gene, the expression of which is dependent on the HIV-1 expressed proteins tat and rev. Productive infection of an MT4-GFP cell with HIV-1 results in GFP expression approximately 24h post-infection.
MT4-GFP cells were maintained at 37° C./5% CO2/90% relative humidity in RPMI 1640 supplemented with 10% fetal bovine serum, 100 U/mL penicillin/streptomycin, and 400 μg/mL G418 to maintain the reporter gene. For infections, MT4-GFP cells were placed in the same medium lacking G418 and infected overnight with H9IIIB virus at an approximate multiplicity of infection of 0.01 in the same incubation conditions. Cells were then washed and re-suspended in either RPMI 1640 containing 10% or 50% normal human serum at 1.6×10^5 cells/mL. Compound plates were prepared by dispensing compounds dissolved in DMSO into wells of 384 well poly D lysine-coated plates ([…]) using an ECHO acoustic dispenser. Each compound was tested in a 10 point serial 3-fold dilution (typical final concentrations: 8.4 μM-0.43 nM). Controls included no inhibitor (DMSO only) and a combination of three antiviral agents (efavirenz, indinavir, and an integrase strand transfer inhibitor at final concentrations of 4 μM each). Cells were added (50 μL/well) to compound plates and the infected cells were maintained at 37° C./5% CO2/90% relative humidity.
Infected cells were quantified at two time points, ˜48h and ˜72h post-infection, by counting the number of green cells in each well using an Acumen eX3 scanner. The increase in the number of green cells over ˜24h period gives the reproductive ratio, R0, which is typically 5-15 and has been shown experimentally to be in logarithmic phase (data not shown). Inhibition of R0 is calculated for each well, and IC50s determined by non-linear 4-parameter curve fitting.

pIC50: −log10 of the molar value. Like-named read-outs stand apart in the source and are kept apart here.

As for `C#CC1(COP(=O)(O)OP(=O)(O)OP(=O)(O)O)CC(n2cnc3c(=O)[nH]c(N)nc32)CC1O` (racemic) [Example (+/−) 47, ((1S,2S,4R)-4-(2-amino-6-oxo-1,6-dihydro-9H-purin-9-yl)-1-ethynyl-2-hydroxycyclopentyl)methyl tetrahydrogen triphosphate and ((1R,2R,4S)-4-(2-amino-6-oxo-1,6-dihydro-9H-purin-9-yl)-1-ethynyl-2-hydroxycyclopentyl)methyl tetrahydrogen triphosphate], the pIC50 in experiment [1] was 6.49. On to `C#CC1(COP(=O)(O)OP(=O)(O)OP(=O)(O)O)CC(n2cc(C)c(=O)[nH]c2=O)CC1O` (racemic) [Example (+/−) 48, ((1S,2S,4R)-1-ethynyl-2-hydroxy-4-(5-methyl-2,4-dioxo-3,4-dihydropyrimidin-1(2H)-yl)cyclopentyl)methyl tetrahydrogen triphosphate and ((1R,2R,4S)-1-ethynyl-2-hydroxy-4-(5-methyl-2,4-dioxo-3,4-dihydropyrimidin-1(2H)-yl)cyclopentyl)methyl tetrahydrogen triphosphate], for which the pIC50 in experiment [1] is 6.94.

For the compound `C#CC1(COP(=O)(O)OP(=O)(O)OP(=O)(O)O)CC(n2ccc(N)nc2=O)CC1O` (racemic) [Example (+/−) 49, ((1S,2S,4R)-4-(4-amino-2-oxopyrimidin-1(2H)-yl)-1-ethynyl-2-hydroxycyclopentyl)methyl tetrahydrogen triphosphate and ((1R,2R,4S)-4-(4-amino-2-oxopyrimidin-1(2H)-yl)-1-ethynyl-2-hydroxycyclopentyl)methyl tetrahydrogen triphosphate], the pIC50 in experiment [1] is under 4.00. In experiment [1], `N#CC1(COP(=O)(O)OP(=O)(O)OP(=O)(O)O)CC(n2cnc3c(=O)[nH]c(N)nc32)CC1O` (racemic) [Example (+/−) 75, ((1S,2S,4R)-4-(2-amino-6-oxo-1,6-dihydro-9H-purin-9-yl)-1-cyano-2-hydroxycyclopentyl)methyl tetrahydrogen triphosphate and ((1R,2R,4S)-4-(2-amino-6-oxo-1,6-dihydro-9H-purin-9-yl)-1-cyano-2-hydroxycyclopentyl)methyl tetrahydrogen triphosphate] had a pIC50 of 6.35. The same measure, in the same setting: in the case of `Cc1cn(C2CC(O)C(C#N)(COP(=O)(O)OP(=O)(O)OP(=O)(O)O)C2)c(=O)[nH]c1=O` (racemic) [Example (+/−) 76, ((1S,2S,4R)-1-cyano-2-hydroxy-4-(5-methyl-2,4-dioxo-3,4-dihydropyrimidin-1(2H)-yl)cyclopentyl)methyl tetrahydrogen triphosphate and ((1R,2R,4S)-1-cyano-2-hydroxy-4-(5-methyl-2,4-dioxo-3,4-dihydropyrimidin-1(2H)-yl)cyclopentyl)methyl tetrahydrogen triphosphate] it was 6.28.

Take `N#C[C@@]1(CO)C[C@H](n2cnc3c(N)nc(F)nc32)C[C@H]1O` (single isomer, unassigned) [Example 73B, (1S,2S,4R)-4-(6-amino-2-fluoro-9H-purin-9-yl)-2-hydroxy-1-(hydroxymethyl)cyclopentane-1-carbonitrile or (1R,2R,4S)-4-(6-amino-2-fluoro-9H-purin-9-yl)-2-hydroxy-1-(hydroxymethyl)cyclopentane-1-carbonitrile]: the pIC50 in experiment [2] was 4.96.

Regarding “((1S,2S,4R)-4-(2,4-dichloro-7H-pyrrolo[2,3-d]pyrimidin-7-yl)-1-ethynyl-2-hydroxycyclopentyl)methyl tetrahydrogen triphosphate and ((1R,2R,4S)-4-(2,4-dichloro-7H-pyrrolo[2,3-d]pyrimidin-7-yl)-1-ethynyl-2-hydroxycyclopentyl)methyl tetrahydrogen triphosphate [Example (+/−) 45]”, the IC50 in experiment [1] was found to be 3.38e+07 pM.

On to “((1S,2S,4R)-4-(2,6-dichloro-9H-purin-9-yl)-1-ethynyl-2-hydroxycyclopentyl)methyl tetrahydrogen triphosphate and ((1R,2R,4S)-4-(2,6-dichloro-9H-purin-9-yl)-1-ethynyl-2-hydroxycyclopentyl)methyl tetrahydrogen triphosphate [Example (+/−) 43]”, for which the IC50 in experiment [1] is over 1e+08 pM.

For the origin of these results see patent US11040975B2, “Carbocyclic nucleoside reverse transcriptase inhibitors” (Merck Sharp & Dohme Corp., priority 2017, dated 2021).
